We go through nine molecules from patent US20250234861A1, “LACTONES FOR ENHANCING THE ACTIVITY OF ANTIMICROBIAL AGENTS” (BASF SE, priority 2021, published 2025).

A value given as a limit tells only on which side of the number the result lay.

Common to all, as to type: cell-based
In assay [1] the test system is bacterial mix consisting of Escherichia coli DSM 1576, Alcaligenes faecalis DSM 13644, Pseudomonas aeruginosa ATCC 15442, Staphylococcus aureus ATCC 6538 …. Put plainly: Example 2.3: preservative activity of a basic composition (pH 7, 10% PG) using 1,2-benzisothiazol-3(2H)-one (BIT), bacterial challenge. Particulars: day 7. The protocol: An aqueous composition of pH 7 comprising 10% by weight of propyleneglycol (PG) as organic solvent, 0.004% by weight of 1,2-benzisothiazol-3(2H)-one (BIT) as antimicrobial and the lactone listed in the below table was tested for its preserving activity against bacterial contamination (the weight percentages relate to the total weight of the composition). For this purpose, the samples were contaminated with a bacterial mix consisting of: • Escherichia coli DSM 1576 • Alcaligenes faecalis DSM 13644 • Pseudomonas aeruginosa ATCC 15442 • Staphylococcus aureus ATCC 6538 • Burkholderia cepacia DSM 7288 • Pseudomonas putida DSM 12735
The samples were inoculated with the bacterial mix at day 0 to obtain 10E+06 to 10E+07 CFU/ml inoculation in the test sample and stored at 25° C. for 7 days.
(§1) CFU was determined at day 7.
Any CFU value at day 7 (d7) obtained with a sample according to the invention containing BIT and lactone (10% PG+0.004% BIT+x % of Lactone) that is lower than the respective value of the “comparative 2” example (10% PG+0.004% BIT) indicates a better performance.

Assay [2] has the same test system. Briefly: Example 2.1: preservative activity in a manual dishwashing composition (MDW, pH 7.1) using 2-phenoxyethanol (PE), bacterial challenge. The note with it: for d7 CFU: day 7; for d14 CFU: day 14; for d21 CFU: day 21. On the procedure: (§2) A manual dish wash detergent (MWD) of pH 7.1 containing the following components was used:
The samples were contaminated with a bacterial mix consisting of: • Escherichia coli DSM 1576 • Alcaligenes faecalis DSM 13644 • Pseudomonas aeruginosa ATCC 15442 • Staphylococcus aureus ATCC 6538 • Burkholderia cepacia DSM 7288 • Pseudomonas putida DSM 12735
The samples were inoculated with the bacterial mix at day 0 and 7 to obtain 10E+06 to 10E+07 CFU/ml inoculation in the test sample and stored at 25° C. for 21 days. CFU was determined before re-inoculation at day 7 and on days 14 and 21.
Any CFU value at day 7 (d7), day 14 (d14) or day 21 (d21) obtained with a sample according to the invention containing 2-phenoxyethanol and lactone (MDW+1.0% PE+x % Lactone) lower than the respective value of the “comparative 2” example (MDW+1.0% by weight of 2-Phenoxyethanol) indicates a better performance.

The subject of assay [3] is fungal mix consisting of Aspergillus brasiliensis DSM 1988, Rhodotorula mucilaginosa DSM 13621, Yarrowialipolytica DSM 8218. Briefly: Example 1.2: preservative activity in a manual dishwashing composition (MDW, pH 7.1) using 2-phenoxyethanol (PE), fungal challenge. The note with it: for d7 CFU: day 7; for d14 CFU: day 14; for d21 CFU: day 21. On the procedure:
as §2
(§3) The samples were contaminated with a fungal mix consisting of: • Aspergillus brasiliensis DSM 1988 • Rhodotorula mucilaginosa DSM 13621 • Yarrowialipolytica DSM 8218
(§4) The samples were inoculated with the fungal mix at day 0 and 7 to obtain 1-3×10E+05 CFU/ml inoculation in the test sample consisting of the above-defined dish wash detergent MDW and stored at 25° C. for 21 days. CFU was determined before re-inoculation at day 7, and on days 14 and 21.
(§5) Any CFU value at d7, d14 or d21 obtained with a MDW sample of the invention containing 2-phenoxyethanol and lactone (MDW+1.0% PE+x % of Lactone) lower than the respective value of the “comparative 2” example (MDW+1.0% by weight of 2-Phenoxyethanol) indicates a better performance of the inventive combination of 2-phenoxyethanol with the lactone.

Assay [4] has the same test system. Briefly: Example 1.3: preservative activity in a manual dishwashing composition (MDW, pH 7.1) using 2-phenoxyethanol (PE), fungal challenge. The note with it: for d7 CFU: day 7; for d14 CFU: day 14; for d21 CFU: day 21. On the procedure:
as §2, §3, §4, §5

The test system of assay [5] is Pseudomonas aeruginosa ATCC 15442. Briefly: Example 2.4: preservative activity of a basic composition (pH 5, 10% PG) using sodium benzoate, bacterial challenge. Particulars: day 7. The protocol: An aqueous composition of pH 5 comprising 10% by weight of propyleneglycol (PG) as organic solvent, sodium benzoate as antimicrobial and 0.18% by weight of γ-valerolactone was tested for its preserving activity against bacterial contamination (the weight percentages relate to the total weight of the composition). For this purpose, the samples were contaminated with a bacterial suspension of Pseudomonas aeruginosa ATCC 15442.
The samples were inoculated with the bacterial suspension at day 0 to obtain 6.1×10E+07 CFU/ml inoculation in the test sample and stored at 25° C. for 7 days.
as §1
Any CFU value at day 7 (d7) obtained with a sample according to the invention containing sodium benzoate and lactone (10% PG+x % sodium benzoate+0.18% of Lactone) lower than the respective value of the “comparative 2” example (10% PG+0.5% sodium benzoate) or “comparative 3” example (10% PG+0.85% sodium benzoate) indicates a better performance.

Where [6] appears, read: MDW pH 7.1 + 1.0% of the substance alone (comparative), bacterial mix inoculated day 0 and 7, 25° C.
The mark [7] stands for this setting: MDW pH 7.1 + 1.0% of the substance alone (comparative), bacterial mix.
Where [8] appears, read: MDW + 1.0% PE + 1% of lactone, bacterial mix.
Where [9] appears, read: MDW pH 7.1 + 1.0% of the substance alone (comparative), fungal mix inoculated day 0 and 7, 25° C.
Where [10] appears, read: MDW pH 7.1 + 1.0% of the substance alone (comparative), fungal mix.
Setting [11] is: MDW + 1.0% PE + 1% of lactone, fungal mix.
[12] abbreviates: MDW + 1.0% PE + 2% of lactone, fungal mix.

Take `O=c1[nH]sc2ccccc12` [BIT, 1,2-benzisothiazol-3(2H)-one, reference compound]: the “d7 [CFU/ml]” value in assay [1] (10% PG, pH 7 + 0.004% BIT alone (Comparative 2)) is listed as >100,000 CFU/ml.

In the case of `CCCCCC1CCC(=O)O1` (centres unmarked) [Y-Nonalactone], the “d7 CFU” value in assay [2] (setting [6]) is reported as 8,400 CFU. Besides, in assay [2] (setting [7]), the “d14 CFU” value is >100,000 CFU and the “d21 CFU” value was >100,000 CFU.

As to `CCCCCCC1CCC(=O)O1` (centres unmarked) [y-Decalactone], in assay [2] (setting [8]), the “d7 CFU” value is under 10 CFU, the “d14 CFU” value is on record as under 10 CFU and the “d21 CFU” value is recorded as under 10 CFU. Further, in assay [2] (setting [6]), the “d7 CFU” value is reported as >100,000 CFU. For the same molecule, in assay [2] (setting [7]), the “d14 CFU” value is listed as >100,000 CFU and the “d21 CFU” value is given as >100,000 CFU.

Regarding `OCCOc1ccccc1` [Phenoxyethanol (PE)], the entries for the “d7 CFU” value in assay [3] (setting [9]), in assay [4] (setting [9]) and in assay [2] (setting [6]) were 34,500 CFU, >100,000 CFU and 625 CFU, respectively. Moreover, the entries for the “d14 CFU” value in assay [3] (setting [9]), in assay [4] (setting [10]) and in assay [2] (setting [7]) were 16,500 CFU, >100,000 CFU and >100,000 CFU, respectively. In addition, the figures for the “d21 CFU” value in assay [3] (setting [9]), in assay [4] (setting [10]) and in assay [2] (setting [7]) were 3,800 CFU, >100,000 CFU and >100,000 CFU, respectively.

For the molecule `CCCCCC1CCC(=O)O1` (centres unmarked) [γ-nonalactone], in assay [4] (setting [11]), the “d7 CFU” value is recorded as 4,100 CFU, the “d14 CFU” value is reported as 5,000 CFU and the “d21 CFU” value is listed as 150 CFU. The “d7 CFU” value in assay [4] (setting [9]) is >100,000 CFU. In assay [4] (setting [10]), the “d14 CFU” value was >100,000 CFU and the “d21 CFU” value was >100,000 CFU.

Regarding `CCCCCC1CCC(=O)O1` (centres unmarked) [y-Nonalactone], in assay [2] (setting [8]), the “d7 CFU” value is given as under 10 CFU, the “d14 CFU” value is listed as under 10 CFU and the “d21 CFU” value is on record as under 10 CFU.

In the case of `CC1CCC(=O)O1` (centres unmarked) [γ-valerolactone], the “d7 [CFU/ml]” value in assay [5] (10% PG + 0.5% sodium benzoate + 0.18% of lactone) is 990 CFU/ml; in assay [5] (10% PG + 0.85% sodium benzoate + 0.18% of lactone) it was 890 CFU/ml; in assay [5] (10% PG, pH 5 + 0.18% lactone alone (Comparative 1), P. aeruginosa, 25° C.) it was >100,000 CFU/ml; in assay [1] (10% PG + 0.004% BIT + 0.04% of lactone) it was 145 CFU/ml; in assay [1] (10% PG, pH 7 + 0.04% lactone alone (Comparative 1), 25° C.), >100,000 CFU/ml. Moreover, the “d7 CFU” value in assay [3] (setting [11]) was 3,500 CFU; in assay [3] (setting [12]), 85 CFU; in assay [3] (setting [9]) it was 12,000 CFU. Also, the figures for the “d14 CFU” value in assay [3] (setting [11]), in assay [3] (setting [12]) and in assay [3] (setting [9]) were 3,600 CFU, 95 CFU and 24,500 CFU, respectively. The “d21 CFU” value in assay [3] (setting [11]) is 385 CFU; in assay [3] (setting [12]) it was under 10 CFU; in assay [3] (setting [9]) it was 2,500 CFU.

For `O=C([O-])c1ccccc1.[Na+]` [sodium benzoate, reference compound], the “d7 [CFU/ml]” value is given as >100,000 CFU/ml in assay [5] (10% PG, pH 5 + 0.5% sodium benzoate alone (Comparative 2)) and >100,000 CFU/ml in assay [5] (10% PG, pH 5 + 0.85% sodium benzoate alone (Comparative 3)).

With `CCCCCCC1CCC(=O)O1` (centres unmarked) [γ-Decalactone], the results for the “d7 CFU” value in assay [4] (setting [11]) and in assay [4] (setting [9]) were 24,500 CFU and >100,000 CFU, respectively. Further, the “d14 CFU” value in assay [4] (setting [11]) is listed as 13,000 CFU; in assay [4] (setting [10]), >100,000 CFU. The “d21 CFU” value in assay [4] (setting [11]) is 1200 CFU; in assay [4] (setting [10]), >100,000 CFU.
